Experimental data: publication PMC11696576, “Next generation thiazolyl ketone inhibitors of cytosolic phospholipase A2 α for targeted cancer therapy” (Nature Communications, 2025)
Where “and” joins values, the source holds several entries; their conditions need not be identical. Equal values may be shown once.

What was measured:
Assay type in all cases: cell-based, human
HL-60 cells = test: cell viability, resazurin assay, HL-60; settings: for cell viability relative to 0 µM = 100 (Figure S7b): listed as AVX420
Text: Bjørn Tore Gjertsen (University of Bergen, Norway). […] The cell lines were not authenticated.
Figure S7. Sensitivity of cell lines derived from hematological malignancies. a. cell viability expressed as relative light units ( RLU) is plotted for all cell lines in the screen that were de-rived from hematological malignancies. b. corresponding IC50 values calculated by non-linear regression analysis. c. Cell viability assessed by resazurin assays in MV-4-11 and HL-60 cells.
Data were normalized to the vehicle-treated control (100%) and are the mean of 4 biological replicates ±stdev (MV-4-11) and 5 biological replicates ±stdev (HL-60), Non-linear regres- […]

CCRF-CEM cells = test: intracellular ROS, ROS-red staining and flow cytometry, CCRF-CEM; parameters: ROS Negative Cells: unit not given here; settings: for ROS Negative Cells / ROS Positive Cells: listed as AVX420
Experimental: Data are the mean ± stdev of 3 biological replicates. […] Data are the mean ± stdev of 3 biological replicates.
Rather, when combined with AVX420, exogenous AA augmented cell death (Fig. 6e). […] The response occurred within 1 h, peaked at 8–12 h, and preceded the loss of cell viability (Fig. S9a, b).
After treatment, cells were stained with cellular ROS Assay Kit (Cat. No. ab186029; Abcam, Cambridge, United Kingdom) following the manufacturer’s instructions, and ROS-positive cells were quantified by flow cytometry using either the NovoCyte flow cytometer, and Novoexpress Software v1.5.0 from Agilent Technologies (Santa Clara, USA) or the CytoFLEX flow cytometer and CytExpert analysis software v 2.5 from Beckman Coulter (California, United States). An example showing the gating strategy used to assess ROS-Red staining is found in Fig. S9d.
Figure S9. Intracellular ROS accumulation and cell death. a. Time dependency of the in-crease in iROS following treatment with AVX420 in CCRF-CEM cells as measured by ROS-red stain-ing. Data are the mean ±stdev from ≥2 biological replicates b. […]
±stdev of ≥2 biological replicates c. intracellular ROS measurements in CCRF-CEM cells treated with 0.5 µM AVX420 in the presence of 20 µM arachidonic acid (AA) or 5 µM liproxstatin (Lip) for 4 hours. Data are the mean ± stdev of 2 biological replicates. d. […]
analysis of ROS Red staining by flow cytometry. (i) Gating of live cells using FSC-H versus SSC-H.
(ii) Gating based on ROS Deep Red staining under control conditions and after treatment with (iii) […]
(§1) (1 picture or pasted object on this page, not shown here)

[1] = viability of PBMCs (CTG and propidium iodide exclusion); settings: human, read-out: PBMC viability relative to 0 µM = 100 (Figure S8a)
Experimental: (§2) Propidium iodide exclusion was used to assess cell death by flow cytometry. After treatment, the cells were washed once with PBS and stained with 1.4 μg/mL propidium iodide (PI) for 5 min before quantification of PI negative and positive cells using a CytoFLEX flow cytometer (California, United States). An example of the gating strategy to assess PI staining can be found in Fig. S8c. […]
(§3) cells. a. CTG assays were used to assess viability of PBMCs isolated from human blood after treatment with vehicle control (DMSO) or AVX420 at the indicated doses for either (i) 24 hours or (ii) 72 hours. Data are the mean ±stdev of 4 or 5 biological replicates respectively. b. The propidium iodide exclusion assay was used to assess vi-ability of ungated PBMCs treated with AVX420 at the indicated doses for 24 hours .
(§4) Data are the mean ±stdev from 8 biological replicates (1-16 µM) and 5 biological rep- […]
(§5) iodide exclusion in CD3+ lymphocytes (T-cells). Cells appearing in the bottom right quadrant are PI-negative (live) T-cells while cells in the top right quadrant are PI-posi- […]
as §1

PBMCs = test: as above; settings: for PI Negative (Figure S8b) / PI Positive (Figure S8b): replicates; for PI Negative (Figure S8b) / PI Positive (Figure S8b) / PBMC viability relative to 0 µM = 100 (Figure S8a): listed as AVX420
Experimental: as §2, §3, §4, §5, §1

CCCCCCCOc1ccc(OCC(=O)c2nc(C(=O)OC)cs2)cc1 [GK420]
cell viability relative to 0 µM = 100 (Figure S7b) (HL-60 cells; HL-60, 1 µM, rep1-5): 97.3013 and 90.6778 and 115.865 and 99.353 and 90.3923 | cell viability relative to 0 µM = 100 (Figure S7b) (HL-60 cells; HL-60, 3 µM, rep1-5): 90.5903 and 85.7617 and 98.8696 and 77.2301 and 87.8872 | cell viability relative to 0 µM = 100 (Figure S7b) (HL-60 cells; HL-60, 5 µM, rep1-5): 71.3359 and 44.5692 and 65.87 and 61.5884 and 62.96 | cell viability relative to 0 µM = 100 (Figure S7b) (HL-60 cells; HL-60, 7 µM, rep1-5): 63.2164 and 43.3688 and 54.7108 and 42.3668 and 54.7116 | cell viability relative to 0 µM = 100 (Figure S7b) (HL-60 cells; HL-60, 10 µM, rep1-5): 36.7957 and 43.3263 and 38.5629 and 49.5907 | cell viability relative to 0 µM = 100 (Figure S7b) (HL-60 cells; HL-60, 12 µM, rep1-5): 32.4548 and 37.5058 and 42.0594 and 45.299 | cell viability relative to 0 µM = 100 (Figure S7b) (HL-60 cells; HL-60, 15 µM, rep1-5): 31.4644 and 36.8417 and 35.3195 and 49.7069 | cell viability relative to 0 µM = 100 (Figure S7b) (HL-60 cells; HL-60, 20 µM, rep1-5): 29.4668 and 34.076 and 29.9279 and 43.7902 | viability at 10 µM (HL-60 cells; Homo sapiens, HL-60, HL-60, 10 µM, rep1-5, read-out: cell viability relative to 0 µM = 100 (Figure S7b)): 49.4% | viability at 12 µM (HL-60 cells; Homo sapiens, HL-60, HL-60, 12 µM, rep1-5, read-out: cell viability relative to 0 µM = 100 (Figure S7b)): 45.2% | viability at 15 µM (HL-60 cells; Homo sapiens, HL-60, HL-60, 15 µM, rep1-5, read-out: cell viability relative to 0 µM = 100 (Figure S7b)): 42.5% | viability at 20 µM (HL-60 cells; Homo sapiens, HL-60, HL-60, 20 µM, rep1-5, read-out: cell viability relative to 0 µM = 100 (Figure S7b)): 36.3% | IC50 (HL-60 cells; Homo sapiens, HL-60, resazurin assay): 4.6 µM | time of iROS peak (CCRF-CEM cells; CCRF-CEM (Fig. S9a)): 8 to 12 h | time to iROS response (CCRF-CEM cells; CCRF-CEM (Fig. S9a)): ≤ 1 h | ROS Negative Cells (CCRF-CEM cells; CCRF-CEM, 0.25 µM): 70 and 65 and 71 and 61 | ROS Positive Cells (CCRF-CEM cells; CCRF-CEM, 0.25 µM): 39 and 30 and 35 and 29 | ROS Negative Cells (CCRF-CEM cells; CCRF-CEM, 0.5 µM): 34 and 29 and 30 and 32 and 33 | ROS Positive Cells (CCRF-CEM cells; CCRF-CEM, 0.5 µM): 70 and 68 and 67 and 66 and 71 | ROS Negative Cells (CCRF-CEM cells; CCRF-CEM, 1 µM): 13 and 15 and 12 and 11 | ROS Positive Cells (CCRF-CEM cells; CCRF-CEM, 1 µM): 89 and 87 and 85 and 88 | ROS Negative Cells (CCRF-CEM cells; CCRF-CEM, 2 µM): 8 and 6 and 9 and 10 | ROS Positive Cells (CCRF-CEM cells; CCRF-CEM, 2 µM): 90 and 92 and 94 and 91 | intracellular ROS (iROS) (CCRF-CEM cells; CCRF-CEM, 4 h): dose-dependent increase | viability at 72 h, 1 µM ([1]; PBMC 72H, 1 µM, rep1-5): 103% | viability at 24 h, 0.5 µM ([1]; PMBC 24H, 0.5 µM, rep1-4): 99% | viability at 24 h, 1 µM ([1]; PMBC 24H, 1 µM, rep1-4): 102% | viability at 24 h, 2 µM ([1]; PMBC 24H, 2 µM, rep1-4): 98% | viability at 24 h, 4 µM ([1]; PMBC 24H, 4 µM, rep1-4): 101% | viability at 24 h, 8 µM ([1]; PMBC 24H, 8 µM, rep1-4): 102% | viability at 24 h, 16 µM ([1]; PMBC 24H, 16 µM, rep1-4): 102% | viability at 24 h, 32 µM ([1]; PMBC 24H, 32 µM, rep1-4): 101% | PI Negative (Figure S8b) (PBMCs; 0.5 µM): 87 (3×) and 88 and 86 (2×) and 81 and 79 | PI Positive (Figure S8b) (PBMCs; 0.5 µM): 12 and 14 (2×) and 13 (3×) and 19 and 21 | PI Negative (Figure S8b) (PBMCs; 1 µM): 86 (3×) and 88 and 87 (2×) and 81 and 79 | PI Positive (Figure S8b) (PBMCs; 1 µM): 12 and 14 (3×) and 13 (2×) and 19 and 21 | PI Negative (Figure S8b) (PBMCs; 2 µM): 86 (3×) and 88 and 85 and 81 and 79 and 87 | PI Positive (Figure S8b) (PBMCs; 2 µM): 12 and 15 and 14 (3×) and 19 and 21 and 13 | PI Negative (Figure S8b) (PBMCs; 4 µM): 87 (2×) and 88 and 85 and 86 and 80 and 79 and 84 | PI Positive (Figure S8b) (PBMCs; 4 µM): 12 and 15 and 14 and 20 and 21 and 13 (2×) and 16 | PI Negative (Figure S8b) (PBMCs; 8 µM): 86 and 88 and 84 (2×) and 80 and 77 and 85 and 83 | PI Positive (Figure S8b) (PBMCs; 8 µM): 12 and 16 (2×) and 20 and 23 and 15 and 17 and 14 | PI Negative (Figure S8b) (PBMCs; 16 µM): 86 and 88 and 84 (3×) and 80 and 74 and 81 | PI Positive (Figure S8b) (PBMCs; 16 µM): 12 and 16 (3×) and 20 and 26 and 19 and 14 | PI Negative (Figure S8b) (PBMCs; 32 µM): 82 and 84 and 79 and 81 and 80 | PI Positive (Figure S8b) (PBMCs; 32 µM): 16 and 21 and 19 and 20 and 18 | PBMC viability relative to 0 µM = 100 (Figure S8a) (PBMCs; PBMC 72H, 0.5 µM, rep1-5): 100 and 93 (2×) and 120 | PBMC viability relative to 0 µM = 100 (Figure S8a) (PBMCs; PBMC 72H, 1 µM, rep1-5): 91 and 93 and 110 and 97 | PBMC viability relative to 0 µM = 100 (Figure S8a) (PBMCs; PBMC 72H, 4 µM, rep1-5): 111 and 89 and 93 and 118 and 88 | PBMC viability relative to 0 µM = 100 (Figure S8a) (PBMCs; PBMC 72H, 8 µM, rep1-5): 113 and 75 and 87 and 109 and 93 | PBMC viability relative to 0 µM = 100 (Figure S8a) (PBMCs; PBMC 72H, 16 µM, rep1-5): 109 and 80 and 83 and 90 | PBMC viability relative to 0 µM = 100 (Figure S8a) (PBMCs; PBMC 72H, 32 µM, rep1-5): 104 and 88 and 82 and 76 and 96 | PBMC viability relative to 0 µM = 100 (Figure S8a) (PBMCs; PMBC 24H, 0.5 µM, rep1-4): 100 and 97 (2×) | PBMC viability relative to 0 µM = 100 (Figure S8a) (PBMCs; PMBC 24H, 1 µM, rep1-4): 94 and 95 | PBMC viability relative to 0 µM = 100 (Figure S8a) (PBMCs; PMBC 24H, 2 µM, rep1-4): 97 | PBMC viability relative to 0 µM = 100 (Figure S8a) (PBMCs; PMBC 24H, 4 µM, rep1-4): 97 and 96 | PBMC viability relative to 0 µM = 100 (Figure S8a) (PBMCs; PMBC 24H, 8 µM, rep1-4): 105 | PBMC viability relative to 0 µM = 100 (Figure S8a) (PBMCs; PMBC 24H, 32 µM, rep1-4): 104 | effect on healthy PBMCs (PBMCs; up to a maximum dose tested of 32 µM): no effect
